In patent US8669378B2, “Process for synthesizing epicconone analogs” (Universite de Rouen, priority 2009, dated 2014):

Columns and labels:
Format in all cases: physicochemical
[1] = Fluorescence of the adducts with butylamine in acetonitrile; parameters: Δ Stokes: unit not given here; conditions: Bioconjugated molecule (BuNH2) in CH3CN; for Δ Stokes: emission minus excitation wavelength; for λ fluo (λ excitation) (nm): excitation at maximum-absorption wavelength; for Intensity normalized to 50 μM: fluorescence intensity
Description: (§1) Apparatus: • Acetonitrile: VWR HPLC quality • Micropipette: 5 μl, 10 μl, 200 μl, 1000 μl, • Eppendorf: Safe lock tube PCR • UV cuvette: Varian-Quartz 10 mm thick • Fluorescence cuvette: Hellma-Quartz 10 mm thick • Vortex: Bender & Hobein-Genie 2 • Centrifuge: Baky Bug • Absorbance spectrophotometer: Varian-Cary 50 scan • Fluorescence spectrophotometer: Varian-Cary Eclipse • Thermostated bath: Varian-Cary single cell peltier accessory Stock Solution:
(§2) Approximately exactly 1 to 2 mg of compound Ia-Io are weighed out in a 1.5 mL Eppendorf tube. The stock solutions are then prepared by adding exactly 1 mL of acetonitrile and the Eppendorf tubes are then stored protected from light.
Two protocols were implemented for the fluorescence tests. • For compounds Ii-Ik: 125 μL of the preceding solution (absorbance solution) are diluted to 1.25 mL by adding 1125 μl of acetonitrile to a fluorescence cuvette. The analysis is then performed on the fluorescence spectrophotometer by excitation at the respective maximum-absorption wavelengths. • For compounds Ia-Ih and Il-Io: 1250 μl of the preceding solution (absorbance) are placed in a fluorescence cuvette. The analysis is then performed on the fluorescence spectrophotometer by excitation at the respective maximum-absorption wavelengths.

[2] = Photobleaching of stained standard proteins in gel under UV transilluminator; conditions: protein-stained gel, first-order exponential decay fit, deduced from FIG. 1
Description: The compounds were dissolved at 10 mg/mL in DMSO. The stock solutions obtained were diluted to 1 mg/mL in water and divided into 100 μL aliquots for storage. All the products and aliquots were stored at −80° C.
Standard proteins (SDS labeling kit-low molecular weight sold by GE, 17-0446-01) were diluted in an LDS buffer (250 μL Invitrogen 4×LDS buffer, 100 μL of 1 M DDT, 650 μL of water) to create serial dilutions ranging from 128 ng/STI band to 125 pg/STI band.
5 μL of each protein solution were loaded onto NuPAGE® Novex® 12% bis-tris gels (1.0 mm thick, 12 wells, Invitrogen NP0342BOX). The gels were subjected to a current of 150 V for approximately 65 minutes using MES buffer (50 mM MES, 50 mM tris, 1 mM EDTA, 0.1% SDS, pH 7.3) so that the buffer front arrives just up to the gel. After eluting the dye, the gels were fixed for 1 to 17 hours (100 mL of fixing solution with 15% EtOH (v/v) and 1% citric acid) in individual lanes. The fixing solution used was replaced with fresh solution one hour after staining. The gels were stained for 1 hour in 50 mL of sodium borate buffer at 100 mM (pH 10.9) containing either […] of LavaPurple gel dye (Fluorotechnics; LP-011005) or one of the test compounds (50 μL for a 1 mg/mL solution). The gels were treated with 100 mL of 15% ethanol and then washed with 100 mL of fixing solution for 30 minutes.
Imaging was performed using a Typhoon Trio imager (excitation: 532 nm, emission filter: 610BP30, 540 PMT, resolution: 100 μm) using a normal sensitivity. The recorded image corresponds to the scan at time zero. The gels were then placed in a UV transilluminator for 60, 146, 240, 330, 630 and 990 seconds (total exposure time), a Typhoon scanner image being recorded between each exposure. The volumes of the bands were analyzed using the Image-Quant TL software, and all the band volumes were normalized with phosphorylase B. The photobleaching was analyzed by graphically representing the band volumes as a function of the exposure time (GraphPad Prism v4 software) and by fitting the curve to a first-order exponential decay to determine a pseudofirst-order rate constant.
FIG. 1 represents the decrease of the normalized residual signal of compounds (Ii), (Ij), (Ik), (In) and (Io) according to the invention and of epicocconone.
From this FIGURE, the half-life times of the compounds may be deduced: […]

[3] = Absorbance of the adducts with butylamine in acetonitrile; conditions: Bioconjugated molecule (BuNH2) in CH3CN; for λ UV (nm), second maximum: longer-wavelength absorption maximum, used for excitation; for λ UV (nm), first maximum: shorter-wavelength absorption maximum
Description: as §1, §2
30 μl of stock solution are placed in a 1.5 mL Eppendorf tube. At room temperature, 10 μl (or 30 μl in the case of Ik) of a 0.15 M solution of butylamine/acetonitrile are added and the medium is stirred by vortex and then centrifuged. After diluting to 1 mL by adding 960 μl of acetonitrile (or 940 μl in the case of Ik), the clear solution is transferred into a UV cuvette and then made up to 2 mL with acetonitrile. The analysis is then performed after producing a “blank” spectrum with a pure acetonitrile solution.

For `COc1ccc(/C(O)=C/C(=O)C2=C3C=C4CC(C)(C)OC=C4C(=O)C3(C)OC2=O)cc1` (centres unmarked) [Ij, (Z)-3-(3-hydroxy-3-(4-methoxyphenyl)acryloyl)-6,6,9a-trimethyl-5,6-dihydro-9aH-furo[3,2-g]isochromene-2,9-dione], the “Δ Stokes” value [1] was 98, the “λ fluo (λ excitation) (nm)” value [1] was 603 nm and the “Intensity normalized to 50 μM” value [1] was 3988. For the same molecule, the “Half-life time” value [2] was 6.6 min, the “λ UV (nm), second maximum” value [3] was 505 nm and the “λ UV (nm), first maximum” value [3] was 366 nm.

With `CC1CC2=CC3=C(C(=O)c4ccccc4O)C(=O)OC3(C)C(=O)C2=CO1` (centres unmarked) [Ig, 3-(2-hydroxybenzoyl)-6,9a-dimethyl-5,6-dihydro-9aH-furo[3,2-g]isochromene-2,9-dione] the “Δ Stokes” value [1] was 134, the “λ fluo (λ excitation) (nm)” value [1] was 597 nm and the “Intensity normalized to 50 μM” value [1] was 32. The “λ UV (nm), second maximum” value [3] was 463 nm and the “λ UV (nm), first maximum” value [3] was 350 nm.

For `COc1ccc(C(=O)C2=C3C=C4CC(C)(C)OC=C4C(=O)C3(C)OC2=O)cc1` (centres unmarked) [Ih, 3-(4-methoxybenzoyl)-6,6,9a-trimethyl-5,6-dihydro-9aH-furo[3,2-g]isochromene-2,9-dione], the “Δ Stokes” value [1] was 130, the “λ fluo (λ excitation) (nm)” value [1] was 590 nm and the “Intensity normalized to 50 μM” value [1] was 155. The “λ UV (nm), second maximum” value [3] was 460 nm and the “λ UV (nm), first maximum” value [3] was 354 nm.

With `CC(C(=O)C1=C2C=C3CC(C)(C)OC=C3C(=O)C2(C)OC1=O)C(=O)c1ccccc1` (centres unmarked) [Im, 6,6,9a-trimethyl-3-(2-methyl-3-oxo-3-phenylpropanoyl)-5,6-dihydro-9aH-furo[3,2-g]isochromene-2,9-dione] the “Δ Stokes” value [1] was 102, the “λ fluo (λ excitation) (nm)” value [1] was 591 nm and the “Intensity normalized to 50 μM” value [1] was 202. The “λ UV (nm), second maximum” value [3] was 489 nm and the “λ UV (nm), first maximum” value [3] was 351 nm.

For `COc1ccc(C(=O)C2=C3C=C4CC(C)OC=C4C(=O)C3(C)OC2=O)cc1` (centres unmarked) [Ib, 3-(4-methoxybenzoyl)-6,9a-dimethyl-5,6-dihydro-9aH-furo[3,2-g]isochromene-2,9-dione], the “Δ Stokes” value [1] was 134, the “λ fluo (λ excitation) (nm)” value [1] was 586 nm and the “Intensity normalized to 50 μM” value [1] was 205. The “λ UV (nm), second maximum” value [3] was 452 nm and the “λ UV (nm), first maximum” value [3] was 351 nm.

In the case of `COc1ccccc1C(=O)C1=C2C=C3CC(C)OC=C3C(=O)C2(C)OC1=O` (centres unmarked) [If, 3-(2-methoxybenzoyl)-6,9a-dimethyl-5,6-dihydro-9aH-furo[3,2-g]isochromene-2,9-dione], the “Δ Stokes” value [1] is reported as 120, the “λ fluo (λ excitation) (nm)” value [1] is reported as 589 nm and the “Intensity normalized to 50 μM” value [1] is reported as 147. The “λ UV (nm), second maximum” value [3] was 469 nm and the “λ UV (nm), first maximum” value [3] was 351 nm.

For `CC1(C)CC2=CC3=C(C(=O)/C=C(\O)c4ccc5ccccc5c4)C(=O)OC3(C)C(=O)C2=CO1` (centres unmarked) [Io, 3-(1-hydroxy-3-naphtalen-2-yl-3-oxopropenyl)-6,6,9a-trimethyl-5,6-dihydro-9aH-furo[3,2-g]isochromene-2,9-dione], the “Δ Stokes” value [1] was 89, the “λ fluo (λ excitation) (nm)” value [1] was 609 nm and the “Intensity normalized to 50 μM” value [1] was 4320. The “Half-life time” value [2] was 44.7 min, the “λ UV (nm), second maximum” value [3] was 520 nm and the “λ UV (nm), first maximum” value [3] was 364 nm.

For `COc1ccc(C(=O)C(C)C(=O)C2=C3C=C4CC(C)(C)OC=C4C(=O)C3(C)OC2=O)cc1` (centres unmarked) [Il, 3-(3-(4-methoxyphenyl)-2-methyl-3-oxopropanoyl)-6,6,9a-trimethyl-5,6-dihydro-9aH-furo[3,2-g]isochromene-2,9-dione], the “Δ Stokes” value [1] was 90, the “λ fluo (λ excitation) (nm)” value [1] was 588 nm and the “Intensity normalized to 50 μM” value [1] was 264. For the same molecule, the “λ UV (nm), second maximum” value [3] was 498 nm and the “λ UV (nm), first maximum” value [3] was 350 nm.

With `COc1ccc(/C(O)=C/C(=O)C2=C3C=C4CC(C)OC=C4C(=O)C3(C)OC2=O)cc1` (centres unmarked) [Ii, (Z)-3-(3-hydroxy-3-(4-methoxyphenyl)acryloyl)-6,9a-dimethyl-5,6-dihydro-9aH-furo[3,2-g]isochromene-2,9-dione] the “Δ Stokes” value [1] was 99, the “λ fluo (λ excitation) (nm)” value [1] was 596 nm and the “Intensity normalized to 50 μM” value [1] was 3020. The “Half-life time” value [2] was 18.3 min, the “λ UV (nm), second maximum” value [3] was 497 nm and the “λ UV (nm), first maximum” value [3] was 366 nm.

For `CC1(C)CC2=CC3=C(C(=O)/C=C(\O)c4ccccc4)C(=O)OC3(C)C(=O)C2=CO1` (centres unmarked) [Ik, (Z)-3-(3-hydroxy-3-phenylacryloyl)-6,6,9a-trimethyl-5,6-dihydro-9aH-furo[3,2-g]isochromene-2,9-dione], the “Δ Stokes” value [1] was 94, the “λ fluo (λ excitation) (nm)” value [1] was 606 nm and the “Intensity normalized to 50 μM” value [1] was 4157. For the same molecule, the “Half-life time” value [2] was 22.4 min, the “λ UV (nm), second maximum” value [3] was 512 nm and the “λ UV (nm), first maximum” value [3] was 365 nm.

For `CC1CC2=CC3=C(C(=O)c4ccc5ccccc5c4)C(=O)OC3(C)C(=O)C2=CO1` (centres unmarked) [Id, 3-(2-naphthoyl)-6,9a-dimethyl-5,6-dihydro-9aH-furo[3,2-g]isochromene-2,9-dione], the “Δ Stokes” value [1] was 106, the “λ fluo (λ excitation) (nm)” value [1] was 570 nm and the “Intensity normalized to 50 μM” value [1] was 173. The “λ UV (nm), second maximum” value [3] was 464 nm and the “λ UV (nm), first maximum” value [3] was 351 nm.

For `CC1CC2=CC3=C(C(=O)c4ccco4)C(=O)OC3(C)C(=O)C2=CO1` (centres unmarked) [Ic, 3-(furan-2-carbonyl)-6,9a-dimethyl-5,6-dihydro-9aH-furo[3,2-g]isochromene-2,9-dione], the “Δ Stokes” value [1] was 128, the “λ fluo (λ excitation) (nm)” value [1] was 593 nm and the “Intensity normalized to 50 μM” value [1] was 193. The “λ UV (nm), second maximum” value [3] was 465 nm and the “λ UV (nm), first maximum” value [3] was 352 nm.

With `COCCOCCOc1ccc(C(=O)C2=C3C=C4CC(C)OC=C4C(=O)C3(C)OC2=O)cc1` (centres unmarked) [Ie, 3-(4-(2-(2-methoxyethoxy)ethoxy)benzoyl)-6,9a-dimethyl-5,6-dihydro-9aH-furo[3,2-g]isochromene-2,9-dione] the “Δ Stokes” value [1] was 137, the “λ fluo (λ excitation) (nm)” value [1] was 590 nm and the “Intensity normalized to 50 μM” value [1] was 120. The “λ UV (nm), second maximum” value [3] was 453 nm and the “λ UV (nm), first maximum” value [3] was 349 nm.

For `CC1CC2=CC3=C(C(=O)c4ccccc4)C(=O)OC3(C)C(=O)C2=CO1` (centres unmarked) [Ia, 3-benzoyl-6,9a-dimethyl-5,6-dihydro-9aH-furo[3,2-g]isochromene-2,9-dione], the “Δ Stokes” value [1] was 113, the “λ fluo (λ excitation) (nm)” value [1] was 585 nm and the “Intensity normalized to 50 μM” value [1] was 98. The “λ UV (nm), second maximum” value [3] was 472 nm and the “λ UV (nm), first maximum” value [3] was 351 nm.
